# Measured values taken from patent US20180117011A1, “ENZALUTAMIDE IN COMBINATION WITH AFURESERTIB FOR THE TREATMENT OF CANCER” (Novartis AG, priority 2013, published 2018).
# Key:
# Type in all cases: cell-based
# LNCaP cells [1] = assay: Cell proliferation assay (CellTiter-Glo, total cellular ATP); conditions: charcoal-stripped serum, 0.1 nM R1881, 7 days; FIG. 1
# Description: Androgen-dependent prostate cancer cell line, LNCaP, were grown in RPMI 1640 culture medium supplemented with 10% charcoal-stripped fetal bovine serum for 24 hours in 96-well tissue culture plates at a density of 1,000 cells per well. Cells were treated with various concentrations of compounds A or B alone and in combination in presence of synthetic androgen (R1881, Sigma-Aldrich, St. Louis, Mo.). After 7 days, total cellular ATP was measured using the CellTiter-Glo Luminescent Cell Viability Assay (Promega, Madison, Wis.) on an EnVision plate reader. Background counts from wells containing no cells were subtracted and the data is presented as a percentage of the DMSO-treated control cells.
# LNCaP cells [2] = assay: Luminescent caspase 3/7 assay in LNCaP cells; conditions: five days, FIG. 3A
# Description: (§1) Tumor cells were seeded in 96-well white tissue culture plates in 100 μL growth media (media with 10% FBS) or CSS media (media with 10% charcoal stripped fetal bovine serum). LNCaP cells were seeded at a density of 1,000 cells per well, whereas, VCaP cells were seeded at 7,500 cells per well. Approximately 24 hr after plating, duplicate or triplicate plates of cells were treated with indicated compounds for both luminescent caspase-3/7 and CTG readings. At the end of the 5 days of incubations, half of the plates were lysed and caspase-3/7 activity was measured using the Caspase-Glo® 3/7 Assay (Promega) according to the manufacturer's protocol. Briefly, Caspase-Glo reagent was added to each plate, incubated for at least 45 minutes, and luminescent signal was read on the EnVision Multilabel Plate Reader with a 0.1 sec integration time. The remaining plates were lysed and ATP levels were measured using the CTG assay. The caspase-3/7 signal was normalized to the ATP signal. The normalized values were expressed as a percentage of the control wells.
# VCaP cells = assay: Luminescent caspase 3/7 assay in VCaP cells; conditions: 5 days, FIG. 3B
# Description: as §1
# [3] = tested on: cell signaling in LNCaP cells; assay: Effect on cell signaling (immunoblot assay); conditions: 0.1 nM R1881, 6 hour, FIG. 2
# Description: LNCaP cells were grown in RPMI 1640 culture medium supplemented with 10% charcoal-stripped fetal bovine serum for 48 hours in 6-well tissue culture plates at a density of 500,000 cells per well. Cells were treated with the indicated compounds for six hours, washed with PBS, and whole cell lysates were prepared in RIPA buffer (Teknova, Hollister, Calif.). Cell lysates were clarified by centrifugation at 20,000 relative centrifugal force, 4° C., and protein was quantified using the BCA Protein Assay Kit (Pierce, Rockford, Ill.). Equal amounts of protein lysates were separated by SDS-PAGE using a 4-12% Bis-Tris polyacrylamide gel (Life Technologies) and transferred to a nitrocellulose membrane and incubated with antibodies against total and phospho-AKT, phospho-PRAS40, total and phospho-S6, androgen receptor, and FKBP5. Following incubation with primary antibody, blots were washed and incubated with IRDye-800 anti-mouse or IRDye-680 anti-rabbit antibodies for 1 h. Following thorough washing, blots were analyzed using an infrared imaging system (LI-COR).
SMILES,LNCaP cell growth (anti-proliferative effect) (LNCaP cells [1]),"caspase 3/7 activity induction in LNCaP cells (LNCaP cells [2]; Compound A 10 uM, Compound B 1 uM, or both, medium not specified)","caspase 3/7 activity induction in LNCaP cells, media containing charcoal stripped serum (LNCaP cells [2]; CSS media)","caspase 3/7 activity induction in LNCaP cells, growth media (LNCaP cells [2]; growth media (10% FBS))","caspase 3/7 activity induction in VCaP cells, CSS media (VCaP cells; Compound A 10 uM, CSS media) [fold]","caspase 3/7 activity induction in VCaP cells, growth media (VCaP cells; Compound A 10 uM, growth media) [fold]",phospho-AKT (T308) ([3]; Compound B 100 or 300 nM alone or with compound A 3 uM),androgen receptor level ([3]; Compound B 100 or 300 nM),androgen receptor target gene (FKBP5) expression ([3]; Compound B 100 or 300 nM),phospho-PRAS40 (AKT downstream substrate) ([3]; Compound B 100 or 300 nM),phospho-S6 (AKT downstream substrate) ([3]; Compound B 100 or 300 nM),"caspase 3/7 activity induction in VCaP cells, media containing charcoal stripped serum (in words) (VCaP cells; Compound B 1 uM, CSS media)","caspase 3/7 activity induction in VCaP cells, growth media (in words) (VCaP cells; Compound B 1 uM, growth media)"
"CNC(=O)c1ccc(N2C(=S)N(c3ccc(C#N)c(C(F)(F)F)c3)C(=O)C2(C)C)cc1F [Compound A, 4-(3-(4-Cyano-3-(trifluoromethyl)phenyl)-5,5-dimethyl-4-oxo-2-thioxoimidazolidin-1-yl)-2-fluoro-N-methylbenzamide, reference compound]",inhibited,no induction,strong induction,strong induction,11,2,–,–,–,–,–,–,–
"Cn1ncc(Cl)c1-c1cc(C(=O)N[C@H](CN)Cc2cccc(F)c2)sc1Cl [Compound B, N-{(1S)-2-amino-1-[(3-fluorophenyl)methyl]ethyl}-5-chloro-4-(4-chloro-1-methyl-1H-pyrazol-5-yl)-2-thiophenecarboxamide]",inhibited,–,–,–,–,–,increased,no significant effect,no significant effect,inhibited,inhibited,not,strong induction
